Laboratory results published in ChEMBL document CHEMBL4665642, “Anticancer profile of newly synthesized BRAF inhibitors possess 5-(pyrimidin-4-yl)imidazo[2,1-b]thiazole scaffold” (Bioorg Med Chem, 2019).

Legend:
Type in all cases: functional
Conditions in all cases: read-out: Activity
HCT-29 = test: Cytotoxicity against human […] cells assessed as cell viability at 10 uM incubated for 48 hrs by sulforhodamine B assay relative to control
HOP-92 = test: Cytotoxicity against human HOP-92 cells assessed as cell viability at 10 uM incubated for 48 hrs by sulforhodamine B assay relative to control
NCI-H460 = test: Cytotoxicity against human NCI-H460 cells assessed as cell viability at 10 uM incubated for 48 hrs by sulforhodamine B assay relative to control
SNB-19 = test: Cytotoxicity against human SNB-19 cells assessed as cell viability at 10 uM incubated for 48 hrs by sulforhodamine B assay relative to control
M14 = test: Cytotoxicity against human M14 cells assessed as cell viability at 10 uM incubated for 48 hrs by sulforhodamine B assay relative to control
T47D = test: Cytotoxicity against human T47D cells assessed as cell viability at 10 uM incubated for 48 hrs by sulforhodamine B assay relative to control
RPMI-8226 = test: Cytotoxicity against human RPMI-8226 cells assessed as cell viability at 10 uM incubated for 48 hrs by sulforhodamine B assay relative to control
TK-10 = test: Cytotoxicity against human TK-10 cells assessed as cell viability at 10 uM incubated for 48 hrs by sulforhodamine B assay relative to control
IGROV-1 = test: Cytotoxicity against human IGROV-1 cells assessed as cell viability at 10 uM incubated for 48 hrs by sulforhodamine B assay relative to control
HL-60(TB) = test: Cytotoxicity against human HL-60(TB) cells assessed as cell viability at 10 uM incubated for 48 hrs by sulforhodamine B assay relative to control
OVCAR-5 = test: Cytotoxicity against human OVCAR-5 cells assessed as cell viability at 10 uM incubated for 48 hrs by sulforhodamine B assay relative to control
Hs-578T = test: Cytotoxicity against human HS-578T cells assessed as cell viability at 10 uM incubated for 48 hrs by sulforhodamine B assay relative to control
OVCAR-3 = test: Cytotoxicity against human OVCAR-3 cells assessed as cell viability at 10 uM incubated for 48 hrs by sulforhodamine B assay relative to control
KM12 = test: Cytotoxicity against human KM12 cells assessed as cell viability at 10 uM incubated for 48 hrs by sulforhodamine B assay relative to control
OVCAR-4 = test: Cytotoxicity against human OVCAR-4 cells assessed as cell viability at 10 uM incubated for 48 hrs by sulforhodamine B assay relative to control
NCI/ADR-RES = test: Cytotoxicity against human NCI/ADR-RES cells assessed as cell viability at 10 uM incubated for 48 hrs by sulforhodamine B assay relative to control
COLO 205 = test: Cytotoxicity against human COLO 205 cells assessed as cell viability at 10 uM incubated for 48 hrs by sulforhodamine B assay relative to control
UO-31 = test: Cytotoxicity against human UO-31 cells assessed as cell viability at 10 uM incubated for 48 hrs by sulforhodamine B assay relative to control
RXF 393 = test: Cytotoxicity against human RXF 393 cells assessed as cell viability at 10 uM incubated for 48 hrs by sulforhodamine B assay relative to control
SF-539 = test: Cytotoxicity against human SF-539 cells assessed as cell viability at 10 uM incubated for 48 hrs by sulforhodamine B assay relative to control
A549 = test: Cytotoxicity against human A549 cells assessed as cell viability at 10 uM incubated for 48 hrs by sulforhodamine B assay relative to control
SF-268 = test: Cytotoxicity against human SF-268 cells assessed as cell viability at 10 uM incubated for 48 hrs by sulforhodamine B assay relative to control
SK-OV-3 = test: Cytotoxicity against human SK-OV-3 cells assessed as cell viability at 10 uM incubated for 48 hrs by sulforhodamine B assay relative to control
DU-145 = test: Cytotoxicity against human DU-145 cells assessed as cell viability at 10 uM incubated for 48 hrs by sulforhodamine B assay relative to control
K562 = test: Cytotoxicity against human K562 cells assessed as cell viability at 10 uM incubated for 48 hrs by sulforhodamine B assay relative to control
HOP-62 = test: Cytotoxicity against human HOP-62 cells assessed as cell viability at 10 uM incubated for 48 hrs by sulforhodamine B assay relative to control
MCF7 = test: Cytotoxicity against human MCF7 cells assessed as cell viability at 10 uM incubated for 48 hrs by sulforhodamine B assay relative to control
SK-MEL-5 = test: Cytotoxicity against human SK-MEL-5 cells assessed as cell viability at 10 uM incubated for 48 hrs by sulforhodamine B assay relative to control
Malme-3M = test: Cytotoxicity against human Malme-3M cells assessed as cell viability at 10 uM incubated for 48 hrs by sulforhodamine B assay relative to control
HCT-15 = test: Cytotoxicity against human HCT-15 cells assessed as cell viability at 10 uM incubated for 48 hrs by sulforhodamine B assay relative to control
MDA-MB-231 = test: Cytotoxicity against human MDA-MB-231 cells assessed as cell viability at 10 uM incubated for 48 hrs by sulforhodamine B assay relative to control
PC-3 = test: Cytotoxicity against human PC-3 cells assessed as cell viability at 10 uM incubated for 48 hrs by sulforhodamine B assay relative to control
UACC-62 = test: Cytotoxicity against human UACC-62 cells assessed as cell viability at 10 uM incubated for 48 hrs by sulforhodamine B assay relative to control
SK-MEL-28 = test: Cytotoxicity against human SK-MEL-28 cells assessed as cell viability at 10 uM incubated for 48 hrs by sulforhodamine B assay relative to control
SN12C = test: Cytotoxicity against human SN12C cells assessed as cell viability at 10 uM incubated for 48 hrs by sulforhodamine B assay relative to control
786-0 = test: Cytotoxicity against human 786-0 cells assessed as cell viability at 10 uM incubated for 48 hrs by sulforhodamine B assay relative to control
SW-620 = test: Cytotoxicity against human SW-620 cells assessed as cell viability at 10 uM incubated for 48 hrs by sulforhodamine B assay relative to control
NCI-H226 = test: Cytotoxicity against human NCI-H226 cells assessed as cell viability at 10 uM incubated for 48 hrs by sulforhodamine B assay relative to control
SNB-75 = test: Cytotoxicity against human SNB-75 cells assessed as cell viability at 10 uM incubated for 48 hrs by sulforhodamine B assay relative to control
MOLT-4 = test: Cytotoxicity against human MOLT-4 cells assessed as cell viability at 10 uM incubated for 48 hrs by sulforhodamine B assay relative to control
BT-549 = test: Cytotoxicity against human BT-549 cells assessed as cell viability at 10 uM incubated for 48 hrs by sulforhodamine B assay relative to control

## O=S(=O)(NCCCNc1nccc(-c2c(-c3cccc(F)c3)nc3sccn23)n1)c1ccc(Cl)cc1
HCT-29
  viability at 10 µM: 36.9%
HOP-92
  viability at 10 µM: 85.7%
NCI-H460
  viability at 10 µM: 75.4%
SNB-19
  viability at 10 µM: 93%
M14
  viability at 10 µM: 66.1%
T47D
  viability at 10 µM: 25.6%
RPMI-8226
  viability at 10 µM: 55.3%
TK-10
  viability at 10 µM: 99%
IGROV-1
  viability at 10 µM: 42.7%
HL-60(TB)
  viability at 10 µM: 106%
OVCAR-5
  viability at 10 µM: 125%
Hs-578T
  viability at 10 µM: 94.6%
OVCAR-3
  viability at 10 µM: 79.8%
KM12
  viability at 10 µM: 72.7%
OVCAR-4
  viability at 10 µM: 61.4%
NCI/ADR-RES
  viability at 10 µM: 67.4%
COLO 205
  viability at 10 µM: 41.3%
UO-31
  viability at 10 µM: 41.8%
RXF 393
  viability at 10 µM: 99.6%
SF-539
  viability at 10 µM: 99.3%
A549
  viability at 10 µM: 66.9%
SF-268
  viability at 10 µM: 76.3%
SK-OV-3
  viability at 10 µM: 78.1%
DU-145
  viability at 10 µM: 78.2%
K562
  viability at 10 µM: 31.7%
HOP-62
  viability at 10 µM: 102%
MCF7
  viability at 10 µM: 61.7%
SK-MEL-5
  viability at 10 µM: 40.9%
Malme-3M
  viability at 10 µM: 107%
HCT-15
  viability at 10 µM: 49.6%
MDA-MB-231
  viability at 10 µM: 77.9%
PC-3
  viability at 10 µM: 52%
UACC-62
  viability at 10 µM: 40.4%
SK-MEL-28
  viability at 10 µM: 92.3%
SN12C
  viability at 10 µM: 65.9%
786-0
  viability at 10 µM: 83.6%
SW-620
  viability at 10 µM: 104%
NCI-H226
  viability at 10 µM: 46.9%
SNB-75
  viability at 10 µM: 102%
MOLT-4
  viability at 10 µM: 48.3%
BT-549
  viability at 10 µM: 85.4%

## O=S(=O)(NCCCNc1nccc(-c2c(-c3cccc(F)c3)nc3sccn23)n1)c1ccccc1
HCT-29
  viability at 10 µM: 32.9%
HOP-92
  viability at 10 µM: 80.2%
NCI-H460
  viability at 10 µM: 65.3%
SNB-19
  viability at 10 µM: 93.5%
M14
  viability at 10 µM: 50.5%
T47D
  viability at 10 µM: 14.4%
RPMI-8226
  viability at 10 µM: 48%
TK-10
  viability at 10 µM: 92.8%
IGROV-1
  viability at 10 µM: 35.2%
HL-60(TB)
  viability at 10 µM: 101%
OVCAR-5
  viability at 10 µM: 121%
Hs-578T
  viability at 10 µM: 89.9%
OVCAR-3
  viability at 10 µM: 74.9%
KM12
  viability at 10 µM: 62.1%
OVCAR-4
  viability at 10 µM: 54.8%
NCI/ADR-RES
  viability at 10 µM: 53.4%
COLO 205
  viability at 10 µM: 29%
UO-31
  viability at 10 µM: 39%
RXF 393
  viability at 10 µM: 84%
SF-539
  viability at 10 µM: 99.1%
A549
  viability at 10 µM: 63%
SF-268
  viability at 10 µM: 71.5%
SK-OV-3
  viability at 10 µM: 71.5%
DU-145
  viability at 10 µM: 72.7%
K562
  viability at 10 µM: 34.3%
HOP-62
  viability at 10 µM: 98.9%
MCF7
  viability at 10 µM: 50.8%
SK-MEL-5
  viability at 10 µM: 30.7%
Malme-3M
  viability at 10 µM: 82.1%
HCT-15
  viability at 10 µM: 37.8%
MDA-MB-231
  viability at 10 µM: 70.8%
PC-3
  viability at 10 µM: 53.5%
UACC-62
  viability at 10 µM: 26.8%
SK-MEL-28
  viability at 10 µM: 83.4%
SN12C
  viability at 10 µM: 58.2%
786-0
  viability at 10 µM: 74%
SW-620
  viability at 10 µM: 91.3%
NCI-H226
  viability at 10 µM: 43.2%
SNB-75
  viability at 10 µM: 102%
MOLT-4
  viability at 10 µM: 37.1%
BT-549
  viability at 10 µM: 71.1%
